Data published in paper PMC4689619 (Organic & biomolecular chemistry, 2016).
Like-named read-outs stand apart in the source and are kept apart here.

What was measured:
[1] = biological target: oncogenic mutant K-Ras (mGFP-K-Ras G12V) (Homo sapiens, UniProt P01116, G12V); type: cell-based, canine; conditions: MDCK cells stably expressing mGFP-KRasG12V and mCherry-CAAX, 48 h; for IC50: read-out: IC50 (concentration needed for 50% PM mislocalisation)
SW620 Ad300 cells = assay: cells; type: cell-based, human
SW620 cells = assay: resazurin cell viability assay, SW620; type: cell-based, human
P-glycoprotein (P-gp) = P-glycoprotein (P-gp) (Homo sapiens, UniProt P08183); assay: calcein AM flow cytometry assay in P-gp over-expressing SW620 Ad300 cells; conditions: 20 μM
[2] = read-out: SW620 Ad300 IC50, P-gp over-expressing SW620 Ad300, resazurin
[3] = read-out: SW620 IC50, colon cancer cell line SW620, resazurin

P-glycoprotein (P-gp), sequence (P08183 whole entry): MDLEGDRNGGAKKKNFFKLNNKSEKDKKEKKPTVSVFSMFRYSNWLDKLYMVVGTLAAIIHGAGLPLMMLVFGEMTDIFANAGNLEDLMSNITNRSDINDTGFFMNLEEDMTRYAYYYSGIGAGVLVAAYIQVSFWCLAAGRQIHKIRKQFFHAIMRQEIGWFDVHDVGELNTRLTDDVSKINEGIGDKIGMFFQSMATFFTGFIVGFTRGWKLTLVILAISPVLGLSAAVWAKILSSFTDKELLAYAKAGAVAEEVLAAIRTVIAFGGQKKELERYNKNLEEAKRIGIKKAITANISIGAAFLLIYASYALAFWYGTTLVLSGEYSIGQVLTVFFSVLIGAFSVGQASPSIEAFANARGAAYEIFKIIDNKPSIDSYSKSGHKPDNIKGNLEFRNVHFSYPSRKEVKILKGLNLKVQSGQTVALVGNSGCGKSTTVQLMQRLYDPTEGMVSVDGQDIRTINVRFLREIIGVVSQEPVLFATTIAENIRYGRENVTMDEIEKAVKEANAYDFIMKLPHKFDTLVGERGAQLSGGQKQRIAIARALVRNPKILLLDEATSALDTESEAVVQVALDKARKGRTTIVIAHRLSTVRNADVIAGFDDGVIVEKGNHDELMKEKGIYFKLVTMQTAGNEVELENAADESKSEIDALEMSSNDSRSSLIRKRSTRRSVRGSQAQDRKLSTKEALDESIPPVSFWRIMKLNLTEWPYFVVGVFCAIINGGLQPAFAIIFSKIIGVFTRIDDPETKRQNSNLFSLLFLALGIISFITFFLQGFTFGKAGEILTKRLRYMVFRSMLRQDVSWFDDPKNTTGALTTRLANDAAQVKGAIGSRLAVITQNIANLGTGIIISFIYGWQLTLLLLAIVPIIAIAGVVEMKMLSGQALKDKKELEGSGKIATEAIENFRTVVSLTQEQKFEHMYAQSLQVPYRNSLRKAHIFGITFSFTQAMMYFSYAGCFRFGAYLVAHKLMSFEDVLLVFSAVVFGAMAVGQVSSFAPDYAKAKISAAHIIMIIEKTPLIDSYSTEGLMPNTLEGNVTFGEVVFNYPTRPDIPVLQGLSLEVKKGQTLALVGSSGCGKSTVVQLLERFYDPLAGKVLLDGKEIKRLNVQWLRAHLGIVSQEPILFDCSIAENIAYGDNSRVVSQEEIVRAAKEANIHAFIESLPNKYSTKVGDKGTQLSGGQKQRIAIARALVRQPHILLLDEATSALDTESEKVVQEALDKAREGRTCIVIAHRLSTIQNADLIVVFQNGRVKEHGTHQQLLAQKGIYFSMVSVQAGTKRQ

Molecule | Emax (highest Manders coefficient, maximum extent of K-Ras PM mislocalisation) [1] | FR (fold resistance, ratio IC50 SW620Ad300 / IC50 SW620) (SW620 Ad300 cells) | IC50 (SW620 Ad300 cells; Homo sapiens, SW620/AD300, read-out: SW620 Ad300 IC50) [µM] | IC50 (SW620 cells; Homo sapiens, SW-620, read-out: SW620 IC50) [µM] | IC50 [1] [µM] | IC50 (SW620 Ad300 cells; [2]) [µM] | IC50 (SW620 cells; [3]) [µM] | FR (fold resistance) with co-administration of verapamil (SW620 Ad300 cells; co-administration of P-gp inhibitor verapamil) | FAR (fluorescence arbitrary ratio), calcein fluorescence intensity vs PBS (P-glycoprotein (P-gp))
CC[C@@H]1C=CC=CC[C@H](C)[C@@H](O)[C@@H](C)C(=O)[C@H](C)[C@@H](O)[C@H](C)C(=O)[C@H](C)[C@@H](O)[C@H](C)C=CC(=O)O[C@H]2[C@@H](C)[C@@H](CC1)O[C@@]1(CC[C@@H](C)[C@@H](C[C@H](C)O)O1)[C@@H]2C [compound 3, oligomycin C] | 0.72 ± 0.03 | 1.1 | 22.5 ± 3.8 | 19.8 ± 1.2 |  |  |  |  | 
CC[C@H]1/C=C/C=C/C[C@@H](C)[C@H](O)[C@H](C)C(=O)[C@@H](C)[C@H](O)[C@@H](C)C(=O)[C@@H](C)[C@H](O)[C@@H](C)/C=C/C(=O)O[C@@H]2[C@H](C)[C@H](C[C@H]1O)O[C@]1(CC[C@H](C)[C@H](C[C@@H](C)O)O1)[C@H]2C [compound 7, 21-hydroxy-oligomycin C] | 0.68 ± 0.01 | 0.54 |  |  | 0.0141 ± 0.00024 | 3.1 ± 0.2 | 5.7 ± 0.9 |  | 
CC[C@H]1/C=C/C=C/C[C@@H](C)[C@H](O)[C@@](C)(O)C(=O)[C@@H](C)[C@H](O)[C@@H](C)C(=O)[C@@H](C)[C@H](O)[C@@H](C)/C=C/C(=O)O[C@@H]2[C@H](C)[C@H](CC1)O[C@@]1(O[C@@H](C[C@@H](C)O)[C@@H](C)CC1=O)[C@H]2C [compound 2, oligomycin B] | 0.67 ± 0.02 | 0.76 |  |  | 0.00351 ± 0.00016 | 12.9 ± 1.3 | 17 ± 0.6 |  | 
COc1cccc2c1C(=O)c1c(O)c3c(c(O)c1C2=O)C[C@@](O)(C(=O)CO)C[C@@H]3O[C@H]1C[C@H](N)[C@H](O)[C@H](C)O1 [doxorubicin, reference compound] |  | 22 |  |  |  |  |  | 2.4 | 
CC[C@H]1/C=C/C=C/C[C@@H](C)[C@H](O)[C@@](C)(O)C(=O)[C@@H](C)[C@H](O)[C@@H](C)C(=O)[C@@H](C)[C@H](O)[C@@H](C)/C=C/C(=O)O[C@@H]2[C@H](C)[C@H](C[C@H]1O)O[C@]1(CC[C@H](C)[C@H](C[C@@H](C)O)O1)[C@H]2C [compound 6, 21-hydroxy-oligomycin A] | 0.76 ± 0.04 | 0.82 |  |  | 0.00482 ± 0.0007 | 11.8 ± 3.1 | 14.4 ± 0.6 |  | 
CC[C@H]1/C=C/C=C/C[C@@H](CO)[C@H](O)[C@@](C)(O)C(=O)[C@@H](C)[C@H](O)[C@@H](C)C(=O)[C@@H](C)[C@H](O)[C@@H](C)/C=C/C(=O)O[C@@H]2[C@H](C)[C@H](CC1)O[C@@]1(O[C@@H](C[C@@H](C)O)[C@@H](C)CC1=O)[C@H]2C [compound 8, 40-hydroxy-oligomycin B] | 0.73 ± 0.05 | 1.2 |  |  | 0.00591 ± 0.00162 | 16.4 ± 1.5 | 13.6 ± 0.4 |  | 
CC[C@H]1/C=C/C=C/C[C@@H](C)[C@H](O)[C@@](C)(O)C(=O)[C@@H](C)[C@H](O)[C@@H](C)C(=O)[C@@H](C)[C@H](O)[C@@H](C)/C=C/C(=O)O[C@H]2C[C@@]3(CC[C@H](C)[C@H](C[C@@H](C)O)O3)O[C@@H](CC1)[C@H]2C [compound 4, oligomycin D] | 0.72 ± 0.01 | 0.35 |  |  | 0.00349 ± 8e-05 | 12.9 ± 1 | 36 ± 2.3 |  | 
CC[C@H]1/C=C/C=C/C[C@@H](C)[C@H](O)[C@@](C)(O)C(=O)[C@@H](C)[C@H](O)[C@@H](C)C(=O)[C@@H](C)[C@H](O)[C@@H](C)/C=C/C(=O)O[C@@H]2[C@H](C)[C@H](CC1)O[C@@]1(O[C@@H](C[C@@H](C)O)[C@@H](C)CC1=O)[C@]2(C)O [compound 5, oligomycin E] | 0.73 ± 0.06 | 0.56 |  |  | 0.0049 ± 0.00064 | 4 ± 0.8 | 7.1 ± 0.4 |  | 48.2
oligomycin A [compound 1] | 0.75 ± 0.02 | 0.27 |  |  |  | 4 ± 1.1 | 14.6 ± 2.5 |  | 
